Assay results reported in patent US11773086B2, “Fungal modulators” (TRUSTEES OF BOSTON UNIVERSITY, priority 2020, dated 2023).

How the values were obtained:
[1] = tested on: C. auris in co-culture with 293T cells; experiment: Co-culture of luciferase-expressing 293T cells with C. auris; assay type: cell-based, Candida auris; settings: azoffluxin and low fluconazole, 48 hours
Description: FIG. 10A depicts mammalian embryonic kidney (293T) cells expressing luciferase used to quantify mammalian cell growth in co-culture. Mammalian cells were seeded in 384-well plates in DMEM medium at 5×10^5 cells/mL overnight. After 24 hours the indicated concentration of compound (⋅ indicates combo treatment concentrations) was added along with 2.5×10^3 cells/mL of C. auris. Co-cultures were incubated for 48 hours at 37° C. and then the luminescence was measured as an output of mammalian cell growth. Error represents standard deviation between technical quadruplicates, (***) indicates a p-value<0.001 between 293T cells alone and co-culture growth for each condition. […] FIG. 10C depicts checkerboard assays performed as described in FIG. 2B with C. auris Clade IV isolate B11801. Relative growth was measured after 24 hours using OD600 and normalized to no-drug control wells (see color bar). The FICI calculated for each checkerboard is shown in the top right of each plot, with values<0.5 indicating synergy. FIG. 10D depicts kidney fungal burden (CFU) in mice from each treatment group (n=3) that had been infected with C. auris B11801. […] The significance of differences between combination treatment and treatment with each compound alone was determined by two-tailed unpaired student t-test, (***) p-value<0.001. […]

[2] = tested on: C. auris efflux; experiment: Nile red accumulation assay (flow cytometry); assay type: cell-based, Candida auris
Description: FIGS. 5A, 5B and 6 illustrate that azoffluxin increases fluconazole (FLC) bioavailability by inhibiting Cdr1-mediated efflux in C. auris. FIG. 5A show C. auris strains grown to exponential phase and treated with 50 μM azoffluxin for 10 minutes when indicated, followed by addition of Nile red for 20 minutes. Cells were then imaged on the DIC and DsRed channels at equivalent exposure times. FIG. 5B: depicts a flow cytometer and histograms of the cells, showing the fluorescence on the PE channel per event for ˜20,000 events. […] FIG. 6 illustrates azoffluxin increases fluconazole (FLC) bioavailability by inhibiting Cdr1-mediated efflux in C. auris. Dose response assays were conducted with a C. auris parental strain, a strain with the efflux pump gene CDR1 deleted, and a strain with the efflux pump CDR4-1 deleted. FLC was titered in a two-fold dilution on the x-axis in the absence and presence of 50 μM azoffluxin. Growth was measured at 48 hours using OD600 and normalized to a no drug control well (see color bar).
Cellular efflux was determined by measuring Nile red accumulation, as previously described. Cells were subcultured from an OD600 0.1 in YPD for 4 hours until exponential phase was reached. […] To quantify fluorescence, a CytoFlex Flow Cytometer (Beckman Coulter) was used. […] Each sample was run using the CytExpert Software until ˜20,000 events had been recorded. […]

[3] = tested on: C. albicans CaCi-17 efflux; experiment: Nile red accumulation (flow cytometry) in CaCi-17; assay type: cell-based, Candida albicans; settings: CaCi-17 and its cdr1Δ/cdr1Δ mutant
Description: FIG. 9A depicts checkerboard assays as described in FIG. 2B and performed with isolates of C. albicans. CaCi-2 and CaCi-17 represent early and late clinical isolates in which FLC resistance evolved over time. Growth was measured at 24 hours using OD600 and normalized to a no drug control well (see color bar). FIG. 9B depicts dose response assays conducted in YPD medium with a C. albicans parental strain, and strains with gain of function mutations in TAC1 as indicated. FLC was tittered in a two-fold dilution on the x-axis in the absence and presence of 50 μM azoffluxin. Growth was measured at 24 hours using OD600 and normalized to a no drug control well (see color bar). […] FIGS. 9D and 9E depict the intracellular concentrations of FLC and azoffluxin measured after treatment (combo treatment at 6.25 μM azoffluxin and 8 μg/mL FLC) for 1 hour by LC-MS. […] Significance was determined by an unpaired student t-test of each combination to the respective compound alone treatment, (*) indicates a p-value<0.05 and (**) indicates a p-value<0.01.
Cellular efflux was determined by measuring Nile red accumulation, as previously described. […] To quantify fluorescence, a CytoFlex Flow Cytometer (Beckman Coulter) was used. […] Each sample was run using the CytExpert Software until ˜20,000 events had been recorded. […]

Compound: C=C(C)C[C@@H](O)COc1cc2c(cc1C1(c3cc4c(cc3OC[C@H](O)CC(=C)C)OCO4)C(=O)Nc3cc(F)ccc31)OCO2 [CMLD012336]
- rescue of human cells in co-culture (luminescence) [1]: dramatic rescue of the human cells
- increase in relative cell-associated Nile red signal ([2]; 50 μM azoffluxin, C. auris Ci6684): 42 fold
- increase in Nile red accumulation ([2]; Clade III isolates B11221 and B11222): 36-40 fold
- Nile red accumulation [3]: increase in Nile red accumulation
